The target in data set [1] is T1, Estrogen-related receptor gamma (Homo sapiens, UniProt P62508).
T1 sequence (P62508 whole entry): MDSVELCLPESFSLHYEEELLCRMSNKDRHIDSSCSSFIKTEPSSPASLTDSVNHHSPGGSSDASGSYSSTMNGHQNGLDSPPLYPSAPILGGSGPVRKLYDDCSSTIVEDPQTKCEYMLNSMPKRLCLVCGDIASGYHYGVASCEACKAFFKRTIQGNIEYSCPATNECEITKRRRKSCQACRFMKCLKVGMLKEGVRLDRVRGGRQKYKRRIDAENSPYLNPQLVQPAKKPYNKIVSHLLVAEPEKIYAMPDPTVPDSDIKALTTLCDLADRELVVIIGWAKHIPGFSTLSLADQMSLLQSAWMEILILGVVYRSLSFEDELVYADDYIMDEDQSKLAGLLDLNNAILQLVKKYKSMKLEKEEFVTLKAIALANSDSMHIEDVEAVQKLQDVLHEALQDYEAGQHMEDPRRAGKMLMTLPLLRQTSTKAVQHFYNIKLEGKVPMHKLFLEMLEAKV
Description: Inhibition of fluorescien-conjugated coactivator PGC1a binding to GST-tagged human ERRgamma LBD after 1 hr by TR-FRET assay

For data set [2], the target named is T2, Steroid hormone receptor ERR1 (Homo sapiens, UniProt P11474).
T2 sequence (P11474 whole entry): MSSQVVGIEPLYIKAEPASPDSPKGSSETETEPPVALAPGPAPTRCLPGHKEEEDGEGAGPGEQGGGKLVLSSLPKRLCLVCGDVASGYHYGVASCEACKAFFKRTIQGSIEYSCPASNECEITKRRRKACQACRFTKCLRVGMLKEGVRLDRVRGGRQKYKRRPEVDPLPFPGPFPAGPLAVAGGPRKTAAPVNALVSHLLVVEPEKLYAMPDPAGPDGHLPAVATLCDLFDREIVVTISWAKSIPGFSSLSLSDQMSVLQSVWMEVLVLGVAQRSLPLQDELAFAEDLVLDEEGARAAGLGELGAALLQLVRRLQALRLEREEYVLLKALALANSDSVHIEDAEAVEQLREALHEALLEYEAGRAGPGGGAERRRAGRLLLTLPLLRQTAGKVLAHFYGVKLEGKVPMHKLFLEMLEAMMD
Put plainly: Inhibition of fluorescien-conjugated coactivator PGC1a binding to ERRalpha (unknown origin) after 1 hr by TR-FRET assay. On the technique in general: In TR-FRET formats the signal depends on donor and acceptor labels being close together.

The target in the next data set is CYP2C9 (Homo sapiens, UniProt P11712). Briefly: Inhibition of CYP2C9 in human liver microsomes assessed as remaining activity by measuring tolbutamide 4-hydroxylase activity at 10 uM pre-incubated for 5 mins followed by NADPH regenerating system addition by LC-MS/MS analysis relative to control. The format is ADME. The note with it: probe tolbutamide (4-hydroxylation), read-out: Activity.
Chain of CYP2C9 (P11712 whole entry): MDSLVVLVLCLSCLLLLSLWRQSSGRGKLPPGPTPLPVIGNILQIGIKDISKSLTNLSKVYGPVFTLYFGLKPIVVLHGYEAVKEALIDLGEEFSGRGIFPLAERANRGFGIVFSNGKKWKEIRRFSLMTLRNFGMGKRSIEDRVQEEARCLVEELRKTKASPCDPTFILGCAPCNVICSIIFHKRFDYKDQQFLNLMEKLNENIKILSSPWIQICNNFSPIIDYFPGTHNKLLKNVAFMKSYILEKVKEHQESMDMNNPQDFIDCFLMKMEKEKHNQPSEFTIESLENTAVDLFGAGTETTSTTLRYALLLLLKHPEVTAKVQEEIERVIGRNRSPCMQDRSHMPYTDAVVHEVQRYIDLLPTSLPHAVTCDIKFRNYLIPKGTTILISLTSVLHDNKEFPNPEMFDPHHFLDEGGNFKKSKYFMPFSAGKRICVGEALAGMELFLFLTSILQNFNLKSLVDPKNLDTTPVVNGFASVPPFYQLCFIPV

Another data set deals with CYP3A4 (Homo sapiens, UniProt P08684). Put plainly: Inhibition of CYP3A4 in human liver microsomes assessed as remaining activity by measuring midazolam 1'-hydroxylase activity at 10 uM pre-incubated for 5 mins followed by NADPH regenerating system addition by LC-MS/MS analysis relative to control. The format is ADME. The settings on record: probe midazolam (1'-hydroxylation), read-out: Activity.
Chain of CYP3A4 (P08684 whole entry): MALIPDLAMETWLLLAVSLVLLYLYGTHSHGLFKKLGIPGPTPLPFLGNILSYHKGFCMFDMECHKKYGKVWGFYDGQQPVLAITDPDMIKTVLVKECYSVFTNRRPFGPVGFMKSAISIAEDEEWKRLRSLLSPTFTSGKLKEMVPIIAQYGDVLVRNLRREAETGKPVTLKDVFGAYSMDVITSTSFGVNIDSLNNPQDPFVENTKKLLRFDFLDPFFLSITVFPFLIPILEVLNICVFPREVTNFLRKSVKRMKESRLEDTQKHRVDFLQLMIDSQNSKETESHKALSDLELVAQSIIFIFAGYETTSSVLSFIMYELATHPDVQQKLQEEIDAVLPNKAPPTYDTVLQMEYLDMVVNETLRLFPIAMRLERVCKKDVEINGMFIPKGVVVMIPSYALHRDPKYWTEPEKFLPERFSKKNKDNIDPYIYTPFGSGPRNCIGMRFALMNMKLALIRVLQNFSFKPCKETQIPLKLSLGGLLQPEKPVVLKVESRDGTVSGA

Data set [3] has as its target T3, Steroid hormone receptor ERR2 (Homo sapiens, UniProt O95718).
T3 sequence (O95718 whole entry): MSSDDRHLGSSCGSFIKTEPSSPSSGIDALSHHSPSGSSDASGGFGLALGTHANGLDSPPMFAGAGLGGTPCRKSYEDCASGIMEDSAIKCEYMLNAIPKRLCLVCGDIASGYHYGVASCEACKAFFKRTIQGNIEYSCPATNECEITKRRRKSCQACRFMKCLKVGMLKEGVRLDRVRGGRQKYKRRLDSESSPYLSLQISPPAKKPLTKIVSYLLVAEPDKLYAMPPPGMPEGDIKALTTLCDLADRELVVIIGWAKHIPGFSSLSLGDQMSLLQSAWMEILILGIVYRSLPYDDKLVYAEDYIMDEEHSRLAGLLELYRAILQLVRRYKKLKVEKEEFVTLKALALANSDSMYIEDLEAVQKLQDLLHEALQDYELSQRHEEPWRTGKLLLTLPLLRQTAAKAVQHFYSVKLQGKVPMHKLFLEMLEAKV
Put plainly: Inhibition of fluorescien-conjugated coactivator PGC1a binding to ERRbeta (unknown origin) after 1 hr by TR-FRET assay.

A further data set deals with T4, CYP1A2 (Homo sapiens, UniProt P05177).
T4 sequence (P05177 whole entry): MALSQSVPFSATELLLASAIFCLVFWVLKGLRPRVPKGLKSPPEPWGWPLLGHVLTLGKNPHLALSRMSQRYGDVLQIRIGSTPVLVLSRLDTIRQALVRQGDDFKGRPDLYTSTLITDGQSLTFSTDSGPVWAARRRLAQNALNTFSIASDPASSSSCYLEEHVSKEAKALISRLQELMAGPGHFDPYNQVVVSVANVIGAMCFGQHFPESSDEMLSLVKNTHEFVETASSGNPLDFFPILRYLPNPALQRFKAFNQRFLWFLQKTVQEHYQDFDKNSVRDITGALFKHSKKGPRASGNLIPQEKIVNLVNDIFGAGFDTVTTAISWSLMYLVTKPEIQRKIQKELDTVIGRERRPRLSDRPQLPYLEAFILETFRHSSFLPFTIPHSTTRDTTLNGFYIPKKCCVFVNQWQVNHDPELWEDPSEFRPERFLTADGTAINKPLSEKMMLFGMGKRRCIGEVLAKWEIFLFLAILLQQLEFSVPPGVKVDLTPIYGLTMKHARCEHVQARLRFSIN
Put plainly: Inhibition of CYP1A2 in human liver microsomes assessed as remaining activity by measuring phenacetin O-deethylase activity at 10 uM pre-incubated for 5 mins followed by NADPH regenerating system addition by LC-MS/MS analysis relative to control. The format is ADME. The settings on record: probe phenacetin (O-deethylation), read-out: Activity. For orientation: Microsomes from liver hold many membrane-bound enzymes, among them those of drug oxidation.

Data set [4] can be described thus: in vitro. The settings on record: human, liver microsomes.
Description: Metabolic stability in human liver microsomes assessed as compound remaining at 1 uM after 30 mins in presence of NADPH by LC-MS/MS analysis
The nature of data set [5]: Metabolic stability in dog liver microsomes assessed as compound remaining at 1 uM after 30 mins in presence of NADPH by LC-MS/MS analysis. The format is ADME, Canis lupus familiaris. The settings on record: read-out: Stability.
Another data set deals with CYP2C19 (Homo sapiens, UniProt P33261). Put plainly: Inhibition of CYP2C19 in human liver microsomes assessed as remaining activity by measuring S-mephenytoin 4-hydroxylase activity at 10 uM pre-incubated for 5 mins followed by NADPH regenerating system addition by LC-MS/MS analysis relative to control. The format is ADME. The settings on record: probe S-mephenytoin (4-hydroxylation), read-out: Activity.
Chain of CYP2C19 (P33261 whole entry): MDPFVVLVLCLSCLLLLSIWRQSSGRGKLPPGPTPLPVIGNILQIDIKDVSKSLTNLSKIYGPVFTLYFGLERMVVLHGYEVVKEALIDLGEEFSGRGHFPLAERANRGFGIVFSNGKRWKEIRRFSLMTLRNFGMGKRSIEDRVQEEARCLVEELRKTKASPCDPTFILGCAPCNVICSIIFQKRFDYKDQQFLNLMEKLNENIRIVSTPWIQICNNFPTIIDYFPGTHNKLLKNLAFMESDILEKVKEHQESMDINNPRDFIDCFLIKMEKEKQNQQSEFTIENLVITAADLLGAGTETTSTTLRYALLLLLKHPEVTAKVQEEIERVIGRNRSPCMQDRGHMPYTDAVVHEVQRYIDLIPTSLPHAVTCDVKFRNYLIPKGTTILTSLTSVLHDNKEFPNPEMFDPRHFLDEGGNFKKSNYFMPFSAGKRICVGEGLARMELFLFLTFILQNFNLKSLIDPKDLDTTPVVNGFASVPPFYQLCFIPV

Data set [6] in a line: in vitro. The note with it: rat, liver microsomes.
Description: Metabolic stability in rat liver microsomes assessed as compound remaining at 1 uM after 30 mins in presence of NADPH by LC-MS/MS analysis
The target in the next data set is CYP2D6 (Homo sapiens, UniProt P10635). Put plainly: Inhibition of CYP2D6 in human liver microsomes assessed as remaining activity by measuring dextromethorphan O-demethylase activity at 10 uM pre-incubated for 5 mins followed by NADPH regenerating system addition by LC-MS/MS analysis relative to control. The format is ADME. The settings on record: probe dextromethorphan (O-demethylation), read-out: Activity.
Chain of CYP2D6 (P10635 whole entry): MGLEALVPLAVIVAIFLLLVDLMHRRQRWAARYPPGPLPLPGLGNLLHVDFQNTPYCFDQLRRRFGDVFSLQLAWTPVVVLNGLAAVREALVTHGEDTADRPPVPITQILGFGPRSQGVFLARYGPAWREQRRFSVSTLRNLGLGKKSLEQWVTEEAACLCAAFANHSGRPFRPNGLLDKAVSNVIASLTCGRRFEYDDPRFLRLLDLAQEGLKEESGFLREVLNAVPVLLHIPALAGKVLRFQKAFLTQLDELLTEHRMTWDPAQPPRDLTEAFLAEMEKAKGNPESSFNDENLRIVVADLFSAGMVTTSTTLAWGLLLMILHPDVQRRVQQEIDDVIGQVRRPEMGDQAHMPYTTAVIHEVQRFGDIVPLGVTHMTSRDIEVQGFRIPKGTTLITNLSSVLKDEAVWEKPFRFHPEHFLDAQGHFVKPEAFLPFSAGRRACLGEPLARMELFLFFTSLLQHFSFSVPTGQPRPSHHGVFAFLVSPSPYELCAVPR

Data set [7] is described as follows: Permeability of the compound in PBS at pH 7.4 at 10 uM after 5 hrs by LC-MS/MS analysis. It is filed as ADME. The settings on record: not told, read-out: permeability.
Data set [8] has as its target T1, Estrogen-related receptor gamma. The source holds these as a separate data set.
Description: Inverse agonist activity at ERRgamma (unknown origin) expressed in human AD293 cells after 24 hrs by beta-galactosidase/luciferase reporter gene assay
A short description of data set [9]: in vitro. The settings on record: mouse, liver microsomes.
Description: Metabolic stability in mouse liver microsomes assessed as compound remaining at 1 uM after 30 mins in presence of NADPH by LC-MS/MS analysis

Some results are limits rather than exact numbers.

The IC50 is the concentration needed to halve the response being measured. Higher therefore signals a need for much substance. As for `CN(C)CCOc1ccc(/C(=C(/CCCF)c2ccccc2)c2ccc(Br)cc2)cc1`, in [1], the concentration for half-maximal inhibition (IC50) came out at 0.48 µM. This lies in the sub-micromolar range.
On the same count and under the same terms, then `COc1ccc(/C(=C(\CCCO)c2ccccc2)c2ccc(OCCN(C)C)cc2)cc1`, with 1 µM.
Consider `CN(C)CCCOc1ccc(/C(=C(/CCCO)c2ccccc2)c2ccc(O)cc2)cc1.Cl`, for which the IC50 in [2] is above 10 µM; in [3], above 10 µM; in data set [8], 0.058 µM; in [1] it was 0.09 µM. For the same molecule, the activity at 10 µM at CYP2C9 stood at 90%; at CYP3A4 it was 79%; on CYP1A2 it was 96%; at CYP2C19, 64%; on CYP2D6, 93%. Moreover, the remaining at 0.5 h, 1 µM in the data set “in vitro [4]” was 72%; in data set [5], 19%; in “in vitro [6]”, 19%; in “in vitro [9]”, 13%. Also, the Papp at 5 h, 10 µM in data set [7] was determined as 0.36 ×10⁻⁶ cm/s.
`CN(C)CCOc1ccc(/C(=C(/CCCO)c2ccccc2)c2cccnc2)cc1` returned an IC50 in data set [1] above 10 µM.
Same read-out and setting: to `CN(C)CCOc1ccc(/C(=C(/CCCO)c2ccccc2)c2ccc(C(F)(F)F)cc2)cc1` belongs 1.3 µM; to `Cc1ccc(/C(=C(\CCCO)c2ccc3cnn(C)c3c2)c2ccc(OCCN(C)C)cc2)cc1`, 5.6 µM; to `CN(C)CCOc1ccc(/C(=C(/CCCO)c2ccccc2)c2ccc(S(C)(=O)=O)cc2)cc1`, above 10 µM.
For the molecule `CN(C)CCOc1ccc(/C(=C(/CCCO)c2cccnc2)c2ccccc2)cc1`, the IC50 in [1] was above 10 µM.
Same read-out and setting: then `CN(C)CCOc1ccc(/C(=C(/CCCO)c2ccccc2)c2ccc(F)cc2F)cc1`, with 6.7 µM; and `Cc1ccc(/C(=C(\CCCO)c2cccnc2)c2ccc(OCCN(C)C)cc2)cc1`, with above 10 µM.
Turning to `CN(C)CCOc1ccc(/C(=C(/CCCO)c2ccccc2)c2ccc(O)cc2)cc1.Cl`, the activity at 10 µM at CYP2C9 stood at 73%; at CYP3A4, 83%; on CYP1A2 it was 84%; on CYP2C19, 78%; on CYP2D6 it was 82%. In addition, the figures for the remaining at 0.5 h, 1 µM in “in vitro [4]” and in the data set “in vitro [6]” were 43% and 26%, respectively. Moreover, the Papp at 5 h, 10 µM in [7] amounted to 0.43 ×10⁻⁶ cm/s.
Consider `CN(C)CCOc1ccc(/C(=C(/CCCO)c2ccccc2)c2ccc(Cl)cc2)cc1`, for which inhibition in data set [1] was half-maximal at 0.52 µM (IC50).
For `COc1ccc(/C(=C(\CCCO)c2ccc3cnn(C)c3c2)c2ccc(OCCN(C)C)cc2)cc1`, the half-maximal inhibitory concentration (IC50) in [1] was above 10 µM.
Same read-out and setting: to `CN(C)CCOc1ccc(/C(=C(/CCCO)c2cccnc2)c2ccc(Br)cc2)cc1` belongs above 10 µM; to `CN(C)CCOc1ccc(/C(=C(/CCCO)c2ccc3cnn(C)c3c2)c2ccc(Br)cc2)cc1`, 5.3 µM; to `CN(C)CCOc1ccc(/C(=C(/CCCO)c2cccc(F)c2)c2ccc(Br)cc2)cc1`, 1.1 µM.
For `CN(C)CCOc1ccc(/C(=C(/CCC(F)F)c2ccccc2)c2ccc(O)cc2)cc1.Cl`, the IC50 is 8.1 µM in data set [2], above 10 µM in [3] and 0.111 µM in data set [8]. In addition, the activity at 10 µM on CYP2C9 came to 60%; at CYP3A4 it was 11%; on CYP1A2 it was 14%; on CYP2C19, 11%; at CYP2D6, 12%. In addition, the remaining at 0.5 h, 1 µM in “in vitro [4]” was 77%; in [5], 73%; in “in vitro [6]” it was 66%; in “in vitro [9]”, 91%. For the same molecule, the Papp at 5 h, 10 µM in [7] was found to be 0.54 ×10⁻⁶ cm/s.
For the molecule `CN(C)CCOc1ccc(/C(=C(/CCCF)c2ccccc2)c2ccc(O)cc2)cc1.Cl`, the IC50 amounted to 8.01 µM in data set [2], 0.722 µM in data set [3], 0.048 µM in data set [8] and 0.02 µM in data set [1]. The activity at 10 µM was 99% at CYP2C9; 93% at CYP3A4; above 100% at CYP1A2; 72% at CYP2C19; above 100% at CYP2D6. The remaining at 0.5 h, 1 µM in “in vitro [4]” worked out at 72%; in [5], 21%; in “in vitro [6]” it was 35%; in “in vitro [9]” it was 24%. The Papp at 5 h, 10 µM in data set [7] worked out at 2.12 ×10⁻⁶ cm/s.
In data set [1], `CN(C)CCOc1ccc(/C(=C(/CCCO)c2ccccc2)c2ccc(C#N)cc2)cc1` yielded an IC50 above 10 µM.
For the molecule `CN(C)CCOc1ccc(/C(=C(/CCC(F)F)c2ccccc2)c2ccc(Br)cc2)cc1`, the IC50 in data set [1] came out at 0.89 µM.
Still for that read-out and setting: then `CN(C)CCOc1ccc(/C(=C(/CCCO)c2ccccc2)c2ccc(F)cc2)cc1`, with 3.9 µM.
Still for that read-out and setting: then `CN(C)CCOc1ccc(/C(=C(/CCCO)c2ccccc2)c2ccncc2)cc1`, with above 10 µM; and `Cc1ccc(/C(=C(\CCCO)c2cccc(F)c2)c2ccc(OCCN(C)C)cc2)cc1`, with 0.5 µM; and `CN(C)CCOc1ccc(/C(=C(/CCCO)c2ccccc2)c2ccccc2)cc1`, with 1.5 µM.

Values taken from ChEMBL document CHEMBL3856205, “Synthesis and biological evaluation of novel 4-hydroxytamoxifen analogs as estrogen-related receptor gamma inverse agonists” (Eur J Med Chem, 2016).
